Reference: patent US20170143701A1, “CARBOHYDRATE METABOLISM-AMELIORATING AGENT” (SUNTORY HOLDINGS LIMITED, priority 2014, published 2017)

Legend:
[1] = system: NCI-H716 cells; assay: In vitro GLP-1 secretion-accelerating action: amount of active GLP-1 secreted (ELISA); format: cell-based; conditions: 1 hour; for Significant difference (p < 0.05) vs control group, amount of active GLP-1 secreted: 10 mM, Student's t-test; for Amount of active GLP-1 secreted (relative value to control group as 100), average value: cyclic dipeptide 10 mM with 10 μM Sitagliptin phosphate, group with no cyclic dipeptide = 100
Method: Among the cyclic dipeptides, 92 highly water-soluble cyclic dipeptides were used in the following experiment. In each well of a Poly-L-Lysine 96-well plate, NCI-H716 cells suspended in 100 μL of a DMEM (with 10% FBS, 2 mM glutamine, and 1% antibiotics added in advance) were seeded at 0.5×10^5 cells/well, and cultured in a CO2 incubator (manufactured by ESPEC CORP.) for 48 hours. After washing with PBS(+), 100 μL of a PBS(+) solution with each cyclic dipeptide at a final concentration of 10 mM and 10 μM of Sitagliptin phosphate added therein was added to the cells. After 1 hour, the resultant solution was recovered, and the amount of active GLP-1 in the solution was measured by using the ELISA kit. In the analysis, the amount of active GLP-1 for a group with no cyclic dipeptide added was defined as 100, and relative values thereto were used.

[2] = system: C57/BL6J mice; assay: In vivo plasma GLP-1 level-increasing action: plasma active GLP-1 level (ELISA) after oral administration; conditions: Table 6, Experiment 1, 10 mg/kg oral; for Significant difference (p < 0.05) vs control group, plasma active GLP-1 level: 30 minutes, Student's t-test; for Plasma active GLP-1 level (relative value to control group as 100), average value: blood 30 minutes after, 0.5% CMC-Na group = 100
Method: Seven-week-old male C57/BL6J mice were purchased from CLEA Japan, Inc. for use, and they were subjected to an experiment after 1 week of a habituation period.
After the habituation period, the mice were subjected to 5.5 hours of food deprivation and 2 hours of water deprivation. Thereafter, a cyclic dipeptide dissolved or suspended in a 0.5% CMC-Na aqueous solution in 10 mg/kg was orally administered to each mouse forcibly. After 30 minutes, the blood was collected from the abdominal vena cava under anesthesia, and 1 μL of heparin sodium and 1 μL of 10 mM Sitagliptin phosphate were added to each collected blood, which was then subjected to centrifugation at 8000 rpm for 10 minutes to recover the plasma, and the plasma active GLP-1 level was measured by using the ELISA kit. In the analysis, the active GLP-1 level for a group administered with 0.5% CMC-Na aqueous solution was defined as 100, and relative values thereto were used.

| SMILES | Significant difference (p < 0.05) vs control group, amount of active GLP-1 secreted ([1]; Table 1, Experiment 1) | Amount of active GLP-1 secreted (relative value to control group as 100), average value ([1]; Table 1, Experiment 1) | Significant difference (p < 0.05) vs control group, plasma active GLP-1 level [2] | Plasma active GLP-1 level (relative value to control group as 100), average value [2] | Significant difference (p < 0.05) vs control group, amount of active GLP-1 secreted ([1]; Table 3, Experiment 3) | Amount of active GLP-1 secreted (relative value to control group as 100), average value ([1]; Table 3, Experiment 3) |
| --- | --- | --- | --- | --- | --- | --- |
| CSCC[C@@H]1NC(=O)[C@@H]2CCCN2C1=O [compound 18, cyclo-methionyl-proline] | Yes | 338 | Yes | 138 | – | – |
| CC1NC(=O)C(CO)NC1=O (stereo not shown) [compound 25, cyclo-alanyl-serine] | Yes | 257 | Yes | 158 | – | – |
| C[C@@H](O)[C@@H]1NC(=O)[C@@H]2CCCN2C1=O [compound 31, Cyclo(Pro-Thr)] | Yes | 204 | No | 129 | – | – |
| C[C@@H]1NC(=O)[C@H](Cc2cnc[nH]2)NC1=O [compound 34, Cyclo(Ala-His)] | No | 211 | No | 100 | – | – |
| O=C1N[C@@H](Cc2cnc[nH]2)C(=O)N2CCC[C@@H]12 [compound 37, cyclo-histidyl-proline] | No | 231 | Yes | 62 | – | – |
| CC(C)C[C@@H]1NC(=O)[C@H](CCCN=C(N)N)NC1=O [compound 43, cyclo-arginyl-leucine] | Yes | 226 | Yes | 138 | – | – |
| CC(O)C1NC(=O)CNC1=O (stereo not shown) [compound 116, Cyclo(Thr-Gly)] | – | – | – | – | No | 146 |
| NC(N)=NCCC[C@@H]1NC(=O)CNC1=O [compound 117, Cyclo(Arg-Gly)] | – | – | – | – | No | 98 |
| CC1NC(=O)CNC1=O (stereo not shown) [compound 121, Cyclo(Gly-Ala)] | – | – | – | – | No | 153 |
| C[C@@H]1NC(=O)[C@H](CC(N)=O)NC1=O [compound 124, Cyclo(Asn-Ala)] | – | – | – | – | No | 116 |
| NC(=O)CC[C@@H]1NC(=O)CNC1=O [compound 126, cyclo-glutaminyl-glycine] | – | – | – | – | Yes | 210 |
| NC(=O)C[C@@H]1NC(=O)[C@H](CCC(=O)O)NC1=O [compound 129, Cyclo(Asn-Glu)] | – | – | – | – | No | 118 |
| NC(=O)CC[C@@H]1NC(=O)[C@H](CCC(=O)O)NC1=O [compound 130, Cyclo(Gln-Glu)] | – | – | – | – | No | 120 |
| NC(=O)CC[C@@H]1NC(=O)[C@H](CO)NC1=O [compound 136, Cyclo(Gln-Ser)] | – | – | – | – | No | 251 |
| CC(O)C1NC(=O)C(CCCCN)NC1=O (stereo not shown) [compound 143, Cyclo(Thr-Lys)] | – | – | – | – | No | 105 |
| C[C@@H]1NC(=O)[C@H](CC(=O)O)NC1=O [compound 153, Cyclo(Asp-Ala)] | – | – | – | – | No | 94 |
| O=C1CNC(=O)[C@H](CO)N1 [compound 154, Cyclo(Ser-Gly)] | – | – | – | – | No | 116 |
